In publication PMC9951879, “Synthesis of New Shogaol Analogues as NRF2 Activators and Evaluation of Their Anti-Inflammatory Activity, Modes of Action and Metabolic Stability” (Antioxidants, 2023):
Where two headings read alike, the source gives them in different places.

Key:
nitric oxide (NO) = assay: Nitric oxide (Griess) in LPSEc-stimulated BV-2 cells; format: cell-based, mouse; details: LPSEc 200 ng/mL; for NO production: 1 μM; for inhibition at 1 µM: Mus musculus, BV-2, 1 μM, read-out: percentage of NO inhibition
Description: (§1) The anti-inflammatory activity of the STCs was determined in E. coli lipopolysaccharide (LPSEc; Sigma Aldrich, USA)-induced inflammation in NRF2-proficient and NRF2 siRNA-transfected mouse microglial (BV-2) cells. The NRF2 was silenced in BV-2 cells using NRF2 siRNA (Santa Cruz Biotechnology, Dallas, TX, USA) in Opti-MEM transfection medium (Thermo Fisher Scientific, USA) using Lipofectamine^TM LTX reagent with PLUS^TM reagent (Thermo Fisher Scientific, USA) following the manufacturer’s protocol and reported method. The cells (5 × 10^5 cells/well) were allowed to form a monolayer by incubating them for 24 h and then adding LPSEc (200 ng/mL) for 4 h. The STCs (1 µM) were then added and incubated for another 20 h. The nitric oxide (NO) level in cell supernatant was determined using the Griess reagent kit (Thermo Fisher Scientific, USA). The levels of proinflammatory cytokines (IL-1β, IL-6, IFN-γ, and TNF-α) in cell supernatant solutions were determined using commercially available ELISA kits (Abcam, Cambridge, UK). The cell pellets were lysed using Cell Lysis buffer (Thermo Fisher Scientific, Waltham, MA, USA) following the manufacturer’s instructions. The supernatant solution in the wells was replaced with PBS, and cells were detached by scraping, washed with PBS, and centrifuged to collect the cell pellet. The cell pellet was lysed on ice in a cell lysis buffer for half an hour, vortexing at regular intervals. The cell lysate was centrifuged at 15,000 rpm for 15 min at 4 °C. The clear lysate was stored at −80 °C until further use. The protein concentration was determined using Bradford’s assay kit (Thermo Fisher Scientific, USA) following the manufacturer’s instructions. The expression of COX-2, NF-κB p65, NRF2, and HO-1 in cell lysates was determined using commercially available ELISA kits (Abcam, St, Louis, Missouri, USA) following the manufacturer’s protocol. In addition, the thiol content was determined using a thiol quantification assay kit (Abcam, USA).

COX-2 = COX-2 ELISA in LPSEc-stimulated BV-2 cell lysates; format: cell-based, mouse; details: LPSEc 200 ng/mL; for COX-2 level: 1 μM; for inhibition at 1 µM: Mus musculus, BV-2, 1 μM, read-out: percentage of COX-2 inhibition
Description: as §1

[1] = Liver microsomal stability, rat; format: in vitro ADME; details: rat liver microsomes, 1 μM (verapamil 0.5 μM)
Description: (§2) The liver microsomes of humans, rats, and mice were purchased from Merck (human, #M0567; rat, #M9066; mouse, #M9441). The metabolic stability of 6-shogaol and STCs (1 μM effective concentration; 5 μL) was mixed with liver microsomes (0.5 mg mL^−1; 445 μL) in a microcentrifuge tube. Verapamil (0.5 μM) was used as the positive control. The microsome and compound mixture were shaken on a plate shaker for 5 min to ensure homogeneity. NADPH (1 mM; 50 μL) was added to the mixture to start the metabolic reaction. The reaction mixture was incubated at 37 °C for 0, 3, 6, 15, 30, 45, and 60 min. The mixture (20 μL) was sampled and quenched with 180 μL of acetonitrile with internal standard (Donepezil 50 ng/mL) to terminate the metabolic reaction at each time point. Ultrapure water (80 μL) was added, and contents in the microcentrifuge tubes were centrifuged at 3800 rpm at 4 °C for 10 min. […] Each set of experiments was repeated three times in human, rat, and mouse liver microsomes. The concentration of the compounds versus time was plotted to determine the elimination rate constant (Kel). The intrinsic clearance (Clint) and half-life (t1/2) were calculated using the following equations.

IL-6 = IL-6 ELISA in LPSEc-stimulated BV-2 cells; format: cell-based, mouse; details: LPSEc 200 ng/mL; for IL-6 level: 1 μM; for inhibition at 1 µM: Mus musculus, BV-2, 1 μM, read-out: percentage of IL-6 inhibition
Description: as §1

[2] = Liver microsomal stability, mouse; format: in vitro ADME; details: mouse liver microsomes, 1 μM (verapamil 0.5 μM)
Description: as §2

[3] = test system: NAD(P)H quinone oxidoreductase 1 (NQO1); assay: Prochaska microtiter plate bioassay, NQO1 induction in Hepa-1c1c7 cells; format: cell-based, mouse
Description: The effect of shogaol thiophene compounds (STCs) on NRF2 activation is determined by measuring the NAD(P)H quinone oxidoreductase 1 (NQO1) inducer activity, as reported in our previous studies. The mouse hepatoma cells (Hepa-1c1c7, 1 × 10^4 per well) were incubated with STCs (10, 1, 0.1, 0.01, and 0.001 µM) for 48 h. The cells were lysed using digitonin (0.8 mg/mL and 2 mM EDTA; Acros, UK), and the protein concentration was determined using Bradford’s assay kit (Thermo Fisher Scientific, USA). The cell lysate was incubated with a reaction mixture of 0.5 M Tris-Cl buffer (Calbiochem, USA), 7.5 mM FAD (Acros, UK), 150 mM glucose-6-phosphate (Calbiochem, San Diego, CA, USA), 2 U/mL glucose-6-phosphate dehydrogenase (Calbiochem, USA), 50 mM NADP+ (Sigma Aldrich, USA), 25 mM menadione (Sigma Aldrich, USA), and 0.7 mM MTT (Sigma Aldrich, USA) at 37 °C for 5 min. The absorbance was recorded at 610 nm using a microplate reader (Spectramax M3, Molecular Devices, San Jose, CA, USA), and the values were normalised to the total protein content.

[4] = Liver microsomal stability, human; format: in vitro ADME; details: for Clint / half-life at 1 μM: human liver microsomes, 1 μM (verapamil 0.5 μM)
Description: as §2

NF-κB p65 = NF-κB p65 ELISA in LPSEc-stimulated BV-2 cell lysates; format: cell-based, mouse; details: LPSEc 200 ng/mL; for NF-κB p65 level: 1 μM; for inhibition at 1 µM: Mus musculus, BV-2, 1 μM, read-out: percent NF-κB inhibition
Description: as §1

TNF-α = TNF-α ELISA in LPSEc-stimulated BV-2 cells; format: cell-based, mouse; details: LPSEc 200 ng/mL; for inhibition at 1 µM: Mus musculus, BV-2, 1 μM, read-out: percentage of TNF-α inhibition
Description: as §1

KEAP1-NRF2 interaction = molecular target: T1, KEAP1-NRF2 interaction (Homo sapiens, UniProt Q14145); assay: KEAP1-Nrf2 inhibitor screening, fluorescence polarisation assay; format: binding; details: KEAP1 Kelch domain, read-out: IC50, NRF2-KEAP1 inhibition
T1 construct: purchased BPS Bioscience
T1 sequence (Q14145 2-624 limits assumed): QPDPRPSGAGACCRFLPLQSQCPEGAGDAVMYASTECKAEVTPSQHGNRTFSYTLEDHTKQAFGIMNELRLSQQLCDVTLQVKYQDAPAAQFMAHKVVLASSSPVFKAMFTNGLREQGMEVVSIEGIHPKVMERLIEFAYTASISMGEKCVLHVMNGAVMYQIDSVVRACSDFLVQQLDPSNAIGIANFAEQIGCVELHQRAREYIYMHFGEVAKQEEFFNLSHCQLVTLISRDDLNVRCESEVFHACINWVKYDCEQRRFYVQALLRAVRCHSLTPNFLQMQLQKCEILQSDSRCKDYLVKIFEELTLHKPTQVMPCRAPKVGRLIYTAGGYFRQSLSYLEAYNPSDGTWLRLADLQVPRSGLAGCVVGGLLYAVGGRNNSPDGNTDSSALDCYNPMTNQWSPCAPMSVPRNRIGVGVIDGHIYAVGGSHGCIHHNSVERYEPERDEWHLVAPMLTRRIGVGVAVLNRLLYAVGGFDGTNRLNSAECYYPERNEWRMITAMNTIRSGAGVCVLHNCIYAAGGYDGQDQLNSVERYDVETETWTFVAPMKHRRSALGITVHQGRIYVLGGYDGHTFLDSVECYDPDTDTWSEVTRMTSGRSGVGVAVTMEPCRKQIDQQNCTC
Description: The KEAP1-Nrf2 inhibitor screening assay kit (BPS Bioscience, San Diego, California, USA) was used to determine the effect of STCs in inhibiting KEAP1-NRF2 interaction following the manufacturer’s protocol and our reported method. The STC solutions were diluted with the assay buffer, and 5 μL of the STC solutions were incubated at room temperature for 30 min in the peptide mixture containing 0.5 μL NRF2 peptide (1 μM) and 20 μL KEAP1 (15 ng/μL). The fluorescence polarisation (FP) was measured using a microplate reader at λex 485 nm and λem 530 nm. The following equation was used to determine the per cent KEAP1-NRF2 inhibitory effect of the STCs. Keap1−Nrf2 inhbitory activity %=1−Relative FP of STC/Relative FP of postive control×100

[5] = 1 μM, NRF2-proficient BV-2 cells

Clint [1] | half-life at 1 μM [1] | Clint [2] | half-life at 1 μM [2] | Clint [4] | half-life at 1 μM [4] | IC50 (KEAP1-NRF2 interaction) | SMILES | NO production (nitric oxide (NO); NRF2-proficient BV-2 cells) | NO production (nitric oxide (NO); NRF2-silenced BV-2 cells) | inhibition at 1 µM (nitric oxide (NO); NRF2-proficient BV-2 cells) | inhibition at 1 µM (nitric oxide (NO); NRF2-silenced BV-2 cells) | COX-2 level (COX-2; NRF2-proficient BV-2 cells) | COX-2 level (COX-2; NRF2-silenced BV-2 cells) | inhibition at 1 µM (COX-2; NRF2-proficient BV-2 cells) | IL-6 level (IL-6; NRF2-proficient BV-2 cells) | IL-6 level (IL-6; NRF2-silenced BV-2 cells) | NF-κB p65 level (NF-κB p65; NRF2-proficient BV-2 cells) | NF-κB p65 level (NF-κB p65; NRF2-silenced BV-2 cells) | TNF-α level (TNF-α; [5]) | TNF-α level (TNF-α; 1 μM, NRF2-silenced BV-2 cells) | further results
11.51 ± 1.37 mL/min/g liver | 6.32 min | 14.32 ± 1.51 mL/min/g liver | 5.08 min | 7.56 ± 1.24 mL/min/g liver | 9.63 min | 0.83 ± 0.1 µM | CCCCC/C=C/C(=O)CCc1ccc(O)c(OC)c1 [6-shogaol, reference compound] | 6.32 ± 0.03 µM | 8.56 ± 0.36 µM | 40% | 24.7% | 4.30 ± 0.10 ng/mL | 6.03 ± 0.21 ng/mL | 35.5% | 435.67 ± 7.77 pg/mL | 852.67 ± 5.69 pg/mL | 70.54 ± 5.04 ng/mL | 132.17 ± 4.52 ng/mL | 1734.00 ± 51.00 pg/mL | 3113.00 ± 55.34 pg/mL | inhibition at 1 µM (COX-2; NRF2-silenced BV-2 cells): 11.7%; inhibition at 1 µM (IL-6; NRF2-proficient BV-2 cells): 53%; inhibition at 1 µM (IL-6; NRF2-silenced BV-2 cells): 6.27%; concentration toxic to the cells in the NQO1 assay ([3]; Hepa-1c1c7 cells): 10 µM; EC (2-fold NQO1 induction) ([3]; Mus musculus, Hepa-1c1c7, 48 h, Hepa-1c1c7 cells, 48 h, read-out: CD (concentration required to double the NQO1 level)): 4.12 ± 0.52 µM; inhibition at 1 µM (NF-κB p65; NRF2-proficient BV-2 cells): 44%; inhibition at 1 µM (NF-κB p65; NRF2-silenced BV-2 cells): 4.61%; percentage of TNF-α inhibition (TNF-α; 1 μM, NRF2-silenced BV-2 cells): no inhibition; inhibition at 1 µM (TNF-α; NRF2-proficient BV-2 cells): 40.4%
7.22 ± 1.23 mL/min/g liver | 10.1 min | 6.42 ± 1.52 mL/min/g liver | 11.3 min | 5.09 ± 0.98 mL/min/g liver | 14.3 min | 0.04 ± 0.001 µM | COc1cc(CCC(=O)/C=C/c2cc(-c3ccccc3)cs2)ccc1O [STC5, (E)-5-(4-Hydroxy-3-methoxyphenyl)-1-(4-phenylthiophen-2-yl)pent-1-en-3-one] | 2.58 ± 0.04 µM |  | 75.5% | 64.8% |  | 3.48 ± 0.09 ng/mL | 76% | 212.33 ± 6.11 pg/mL | 748.67 ± 8.33 pg/mL | 41.5 ± 0.79 ng/mL | 86.3 ± 1.03 ng/mL | 850.00 ± 77.90 pg/mL | 2581.00 ± 51.00 pg/mL | inhibition at 1 µM (COX-2; NRF2-silenced BV-2 cells): 49.1%; inhibition at 1 µM (IL-6; NRF2-proficient BV-2 cells): 77.1%; inhibition at 1 µM (IL-6; NRF2-silenced BV-2 cells): 17.7%; times more potent than 6-shogaol (NRF2 activation) ([3]; versus 6-shogaol): 65 times; half-life in liver microsomes, times longer than that of 6-shogaol ([4]; liver microsomes, species not stated, versus 6-shogaol): about 1.5 times; inhibition at 1 µM (NF-κB p65; NRF2-proficient BV-2 cells): 67.1%; inhibition at 1 µM (NF-κB p65; NRF2-silenced BV-2 cells): 37.7%; inhibition at 1 µM (TNF-α; NRF2-proficient BV-2 cells): 70.8%; inhibition at 1 µM (TNF-α; NRF2-silenced BV-2 cells): 17%
10.57 ± 1.48 mL/min/g liver | 6.88 min | 11.26 ± 2.69 mL/min/g liver | 6.46 min | 6.95 ± 1.52 mL/min/g liver | 10.5 min | 0.9 ± 0.05 µM | COc1cc(CCC(=O)/C=C/c2ccc([N+](=O)[O-])s2)ccc1O [STC8, (E)-5-(4-Hydroxy-3-methoxyphenyl)-1-(5-nitrothiophen-2-yl)pent-1-en-3-one] | 6.38 ± 0.04 µM | 8.86 ± 0.38 µM |  |  | 4.10 ± 0.10 ng/mL | 4.47 ± 0.15 ng/mL |  | 431.667 ± 3.06 pg/mL | 846.67 ± 11.68 pg/mL | 75.6 ± 5.04 ng/mL | 131.57 ± 0.15 ng/mL | 1751.00 ± 77.90 pg/mL | 3130.33 ± 27.47 pg/mL | concentration toxic to the cells in the NQO1 assay ([3]; Hepa-1c1c7 cells): greater than 1 μM; CD (concentration required to double the NQO1 level) ([3]; Hepa-1c1c7 cells, 48 h): did not show the CD value
